Source: ChEMBL document CHEMBL4028852, “Design of a Chemical Probe for the Bromodomain and Plant Homeodomain Finger-Containing (BRPF) Family of Proteins” (J Med Chem, 2017)
Converted amounts (≈) assume the structure as drawn.

Tests used:
[1] = molecular target: Bromodomain-containing protein 4 (Homo sapiens, UniProt O60885); experiment: Inhibition of human BRD4 isoform long bromodomain 1 (44 to 168 residues) expressed in Escherichia coli BL21 after 1 hr by BROMOscan assay
[2] = molecular target: T1, Bromodomain and PHD finger-containing protein 3 (Homo sapiens, UniProt Q9ULD4); experiment: Inhibition of human BRPF3 (588 to 701 residues) expressed in Escherichia coli BL21 after 1 hr by BROMOscan assay
T1 sequence (Q9ULD4 whole entry): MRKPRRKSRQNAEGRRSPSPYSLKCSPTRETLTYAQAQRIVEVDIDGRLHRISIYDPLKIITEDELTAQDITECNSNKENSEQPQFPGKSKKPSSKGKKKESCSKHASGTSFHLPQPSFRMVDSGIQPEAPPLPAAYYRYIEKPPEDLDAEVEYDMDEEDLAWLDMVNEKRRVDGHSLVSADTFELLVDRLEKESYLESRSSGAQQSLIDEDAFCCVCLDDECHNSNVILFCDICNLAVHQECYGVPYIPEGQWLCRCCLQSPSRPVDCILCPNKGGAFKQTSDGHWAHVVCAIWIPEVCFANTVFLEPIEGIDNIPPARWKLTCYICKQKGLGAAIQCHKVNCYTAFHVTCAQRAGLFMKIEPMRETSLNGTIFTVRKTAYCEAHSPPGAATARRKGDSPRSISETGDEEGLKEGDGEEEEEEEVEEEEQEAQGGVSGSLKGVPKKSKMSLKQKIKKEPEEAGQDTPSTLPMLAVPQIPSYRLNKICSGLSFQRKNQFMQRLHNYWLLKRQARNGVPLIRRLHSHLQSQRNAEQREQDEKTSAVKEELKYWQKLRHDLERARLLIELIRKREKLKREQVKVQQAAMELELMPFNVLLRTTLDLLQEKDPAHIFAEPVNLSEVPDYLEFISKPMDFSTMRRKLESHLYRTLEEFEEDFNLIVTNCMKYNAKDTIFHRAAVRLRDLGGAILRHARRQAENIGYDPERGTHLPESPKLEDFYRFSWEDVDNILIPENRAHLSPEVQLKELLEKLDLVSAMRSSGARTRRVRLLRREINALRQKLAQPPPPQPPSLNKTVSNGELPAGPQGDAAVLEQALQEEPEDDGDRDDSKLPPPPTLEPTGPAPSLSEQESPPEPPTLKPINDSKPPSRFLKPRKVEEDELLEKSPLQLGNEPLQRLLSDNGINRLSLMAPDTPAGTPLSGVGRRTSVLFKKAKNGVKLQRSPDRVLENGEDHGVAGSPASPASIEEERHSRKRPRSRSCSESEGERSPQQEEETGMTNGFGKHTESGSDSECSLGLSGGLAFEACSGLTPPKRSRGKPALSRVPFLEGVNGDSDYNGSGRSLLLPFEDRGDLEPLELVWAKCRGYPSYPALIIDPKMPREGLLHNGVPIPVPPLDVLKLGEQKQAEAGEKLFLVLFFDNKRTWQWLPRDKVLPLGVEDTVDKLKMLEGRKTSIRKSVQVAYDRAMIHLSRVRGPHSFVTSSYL

[3] = molecular target: T2, Bromodomain-containing protein 9 (Homo sapiens, UniProt Q9H8M2); experiment: Binding affinity to BRD9 (unknown origin) by isothermal titration calorimetry
T2 sequence (Q9H8M2 whole entry): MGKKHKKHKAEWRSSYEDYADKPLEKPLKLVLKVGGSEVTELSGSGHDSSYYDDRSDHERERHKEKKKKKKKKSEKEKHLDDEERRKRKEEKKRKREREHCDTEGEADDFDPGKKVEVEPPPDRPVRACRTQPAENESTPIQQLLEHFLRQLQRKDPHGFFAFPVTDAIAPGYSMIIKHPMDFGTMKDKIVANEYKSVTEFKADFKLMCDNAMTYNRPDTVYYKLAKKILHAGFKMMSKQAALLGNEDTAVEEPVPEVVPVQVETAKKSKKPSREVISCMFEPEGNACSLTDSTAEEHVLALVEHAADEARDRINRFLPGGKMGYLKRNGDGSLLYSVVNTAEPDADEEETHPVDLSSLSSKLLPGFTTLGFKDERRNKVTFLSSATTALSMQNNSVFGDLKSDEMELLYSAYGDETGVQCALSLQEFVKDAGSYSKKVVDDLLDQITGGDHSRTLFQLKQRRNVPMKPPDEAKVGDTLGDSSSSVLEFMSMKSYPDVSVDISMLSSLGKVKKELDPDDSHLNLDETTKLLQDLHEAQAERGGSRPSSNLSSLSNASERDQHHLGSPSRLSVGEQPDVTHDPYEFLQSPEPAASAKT

[4] = Inhibition of cell proliferation of human RERF-LC-Sq1 cells after 72 hrs by MTS assay; format: functional; conditions: RERF-LC-Sq1, 72 h
[5] = Aqueous solubility of compound; format: physicochemical; conditions: buffer
[6] = test system: Liver; experiment: Metabolic stability in human liver microsomes by UPLC-MS/MS analysis; format: ADME, microsome
[7] = molecular target: T2, Bromodomain-containing protein 9; experiment: Inhibition of His-tagged BRD9 (unknown origin) after 30 mins by alphaScreen assay
[8] = molecular target: KCNQ1/minK (Homo sapiens, UniProt P51787+Q8N4C8); experiment: Inhibition of KCNQ1/minK (unknown origin) at 30 uM; format: protein-complex assay
KCNQ1/minK, sequence (P51787 whole entry): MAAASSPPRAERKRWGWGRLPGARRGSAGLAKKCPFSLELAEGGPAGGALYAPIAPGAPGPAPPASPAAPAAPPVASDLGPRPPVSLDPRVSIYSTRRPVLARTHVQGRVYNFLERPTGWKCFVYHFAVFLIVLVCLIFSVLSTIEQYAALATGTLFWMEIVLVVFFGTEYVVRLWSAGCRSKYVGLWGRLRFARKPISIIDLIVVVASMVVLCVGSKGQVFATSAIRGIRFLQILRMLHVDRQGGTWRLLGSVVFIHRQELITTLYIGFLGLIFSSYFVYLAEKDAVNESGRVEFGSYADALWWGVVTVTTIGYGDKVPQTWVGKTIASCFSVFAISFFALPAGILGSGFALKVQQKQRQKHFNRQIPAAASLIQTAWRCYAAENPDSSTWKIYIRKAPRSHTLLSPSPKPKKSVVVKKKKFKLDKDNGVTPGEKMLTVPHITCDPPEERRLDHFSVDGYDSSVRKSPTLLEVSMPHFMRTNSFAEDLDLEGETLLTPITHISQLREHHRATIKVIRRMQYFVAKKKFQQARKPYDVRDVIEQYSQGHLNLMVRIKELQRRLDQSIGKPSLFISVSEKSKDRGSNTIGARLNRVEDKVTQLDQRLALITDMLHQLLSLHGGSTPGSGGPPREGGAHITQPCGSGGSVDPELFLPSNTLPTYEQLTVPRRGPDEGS
KCNQ1/minK, sequence (Q8N4C8 whole entry): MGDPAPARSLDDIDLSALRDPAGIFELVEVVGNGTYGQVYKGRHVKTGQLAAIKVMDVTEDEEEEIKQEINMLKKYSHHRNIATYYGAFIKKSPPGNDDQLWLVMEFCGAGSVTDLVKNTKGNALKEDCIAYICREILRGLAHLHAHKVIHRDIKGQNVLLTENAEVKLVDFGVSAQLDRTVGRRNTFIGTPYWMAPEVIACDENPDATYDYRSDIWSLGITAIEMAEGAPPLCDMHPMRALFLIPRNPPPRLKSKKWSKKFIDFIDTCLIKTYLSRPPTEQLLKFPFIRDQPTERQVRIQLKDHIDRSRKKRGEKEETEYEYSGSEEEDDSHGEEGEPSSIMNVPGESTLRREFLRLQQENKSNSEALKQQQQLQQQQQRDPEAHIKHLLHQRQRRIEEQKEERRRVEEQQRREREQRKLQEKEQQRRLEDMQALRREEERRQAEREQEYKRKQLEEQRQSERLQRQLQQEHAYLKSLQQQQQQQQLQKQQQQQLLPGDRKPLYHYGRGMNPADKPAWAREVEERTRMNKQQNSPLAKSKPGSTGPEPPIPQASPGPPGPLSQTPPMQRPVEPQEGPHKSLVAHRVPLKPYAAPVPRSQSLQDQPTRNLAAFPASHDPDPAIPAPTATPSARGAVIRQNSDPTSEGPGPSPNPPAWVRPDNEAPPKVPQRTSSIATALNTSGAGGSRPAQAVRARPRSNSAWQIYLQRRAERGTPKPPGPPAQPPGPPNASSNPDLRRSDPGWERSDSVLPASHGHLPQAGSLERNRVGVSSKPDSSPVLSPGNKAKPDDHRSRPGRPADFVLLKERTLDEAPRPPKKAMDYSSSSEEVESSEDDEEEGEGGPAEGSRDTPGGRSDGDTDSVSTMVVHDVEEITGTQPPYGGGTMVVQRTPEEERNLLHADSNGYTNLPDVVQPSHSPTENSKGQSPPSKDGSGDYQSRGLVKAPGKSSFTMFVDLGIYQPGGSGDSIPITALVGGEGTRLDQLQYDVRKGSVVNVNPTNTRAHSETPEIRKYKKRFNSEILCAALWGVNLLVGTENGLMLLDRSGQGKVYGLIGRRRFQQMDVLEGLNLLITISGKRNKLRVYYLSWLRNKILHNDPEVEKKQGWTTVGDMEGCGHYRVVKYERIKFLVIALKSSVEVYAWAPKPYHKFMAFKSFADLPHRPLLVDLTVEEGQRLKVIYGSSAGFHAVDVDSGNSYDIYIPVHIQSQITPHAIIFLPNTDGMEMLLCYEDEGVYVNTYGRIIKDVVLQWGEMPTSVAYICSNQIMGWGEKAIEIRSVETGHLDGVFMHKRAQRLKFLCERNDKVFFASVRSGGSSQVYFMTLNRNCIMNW

Row | Compound | IC50 [1] [µM] | IC50 [2] [µM] | Kd [3] [µM] | GI50 [4] [µM] | solubility [5] [µM] | Stability [6] | IC50 [7] [µM] | inhibition at 30 µM [8] [%]
1 | Cn1c(=O)ccc2cc(S(=O)(=O)Nc3ccccc3)ccc21 | 37 | > 100 |  |  |  |  |  | 
2 | COc1cc(C#N)ccc1S(=O)(=O)Nc1ccc2c(c1)cc(C)c(=O)n2C | 3.7 |  | 1 | 16.6 | 100 (≈ 38.3 µg/mL) | Stable | 4.4 | < 40
3 | COc1cc(C#N)ccc1S(=O)(=O)Nc1ccc2c(c1)cc(C(C)C)c(=O)n2C |  | 4.6 |  |  |  |  |  | 
